pIC50, pKi: −log10 of the molar value.
How the values were obtained:
HIV-1 protease G48V/V82A = target: T1, HIV-1 protease G48V/V82A (Human immunodeficiency virus type 1 group M subtype B, UniProt P04585, G536V/V570A); experiment: continuous fluorogenic HIV protease assay; type: biochemical; settings: for KI-wt/KI-mut / pKi: G48V/V82A; for Fitness: G48V/V82A relative to WT
T1 construct: proteases containing the deleterious drug resistance associated mutations V82F/I84V and G48V/V82A
Method: This example describes the protocol for the sensitive continuous fluorogenic assay for HIV protease of the present invention and its application. […] 21702-1201, upon written request. The inhibition constant for wild-type HIV-1, Kimnt/Kiwt ratio, and vitality were measured. (See Gulnik et al., Biochemistry, 34, 9282-9287 (1995). Protease activity was measured using the fluorgenic substrate Lys-Ala-Arg-Val-Tyr-Phe(NO2)-Glu-Ala-Nle-NH2 (Bachem Bioscience, Inc.). (See Peranteau et al., D.H. (1995) Anal. Biochem.).
The reaction was initiated by the addition of 5 μl of substrate stock solution in water. Increase in fluorescence intensity at the emission maximum of 306 nm (excitation wavelength was 277 nm) was monitored as a function of time using Aminco Bowman-2 luminescence spectrometer (SLM Instruments, Inc.). The initial rate of hydrolysis was calculated by second degree polynomial fit using SLM AB2 2.0 operating software.
For inhibition studies, inhibitors were prepared as stock solutions at different concentrations in dimethylsulfoxide. […] The reaction was initiated by the addition of 5 μl of substrate stock solution in water. For data analysis, the mathematical model for tight-binding inhibitors was used. (See Williams and Morrison (1979), In: Methods of Enzymol. 63, (ed. D. L. Purich), 437-467, Academic Press, NY, London). […]
This example describes the inhibitory activity of compounds 35 (FIG. 5A), 36 (FIG. 5B), 37 (FIG. 5C) and 38 (FIG. 5D). In accordance with the technique disclosed in Example 13 above, the inhibitory activity of these compounds was tested against proteases of the wild-type HIV-1. Compound 36, 37 and 38 were also tested against proteases containing the deleterious drug resistance associated mutations V82F/I84V and G48V/V82A. Fitness was determined in accordance with Example 13.

[1] = target: T2, wild-type HIV-1 (WT) protease (Human immunodeficiency virus type 1 group M subtype B, UniProt P04585); experiment: continuous fluorogenic HIV protease assay; type: biochemical; settings: WT (Table 7)
T2 construct: the proteases of wild-type HIV-1 (WT)
Method: (§1) This example describes the protocol for the sensitive continuous fluorogenic assay for HIV protease of the present invention and its application. […] The inhibition constant for wild-type HIV-1, Kimnt/Kiwt ratio, and vitality were measured.
(§2) The reaction was initiated by the addition of 5 μl of substrate stock solution in water. […] The initial rate of hydrolysis was calculated by second degree polynomial fit using SLM AB2 2.0 operating software.
(§3) For inhibition studies, inhibitors were prepared as stock solutions at different concentrations in dimethylsulfoxide. […] The reaction was initiated by the addition of 5 μl of substrate stock solution in water. For data analysis, the mathematical model for tight-binding inhibitors was used.

HIV-1 protease V82F/I84V [2] = experiment: continuous fluorogenic HIV protease assay; type: biochemical; settings: for KI-wt/KI-mut: V82F/I84V (Table 7); for Fitness: V82F/I84V relative to WT (Table 7)
Method: as §1, §2, §3

HIV-1 protease V82F/I84V [3] = target: T3, HIV-1 protease V82F/I84V (Human immunodeficiency virus type 1 group M subtype B, UniProt P04585, I572V/V570F); experiment: continuous fluorogenic HIV protease assay; type: biochemical; settings: V82F/I84V (Table 7)
T3 construct: the proteases of wild-type HIV-1 (WT) and various mutant enzymes
Method: as §1, §2, §3

HIV-1LAI [4] = experiment: MT-2 cells, MTT assay; type: cell-based; settings: HIV-1LAI; MT-2/MTT, day 7
Method: All drug sensitivities were performed in triplicate. […] The IC50's were determined using the MTT assay on day 7 of culture. All sensitivities were determined in […].

HIV-1LAI [5] = experiment: PHA-PBMC assay, p24 Gag protein production; type: cell-based; settings: HIV-1LAI; PBMC/p24, day 7 (Table 8)
HIV-1BAL = experiment: PHA-PBMC assay, p24 Gag protein production; type: cell-based; settings: HIV-1Ba-L; PBMC/p24, day 7 (Table 8)

**Q.** For `CC(C)CN(C[C@@H](O)[C@H](Cc1ccccc1)NC(=O)O[C@H]1CO[C@H]2OCC[C@H]21)S(=O)(=O)c1ccc(CO)cc1` [Compound 37], which KI-wt/KI-mut (HIV-1 protease G48V/V82A) is on record?
**A.** 5.3

**Q.** And the pKi (HIV-1 protease G48V/V82A)?
**A.** 10.19

**Q.** What about the Fitness (HIV-1 protease G48V/V82A) of the same compound?
**A.** 1.4

**Q.** And the KI-wt/KI-mut [1]?
**A.** 1

**Q.** And the pKi [1]?
**A.** 10.92

**Q.** What about the KI-wt/KI-mut (HIV-1 protease V82F/I84V [2]) of the same compound?
**A.** 2.1

**Q.** What about the Fitness (HIV-1 protease V82F/I84V [2]) of the same compound?
**A.** 0.3

**Q.** And the pKi (HIV-1 protease V82F/I84V [3])?
**A.** 10.59

**Q.** And the pIC50 (HIV-1LAI [4])?
**A.** 8.28

**Q.** And the pIC50 (HIV-1LAI [5])?
**A.** 8.57

**Q.** What about the pIC50 (HIV-1BAL) of the same compound?
**A.** 8.52

**Q.** With `CC(C)CN(C[C@@H](O)[C@H](Cc1ccccc1)NC(=O)O[C@H]1CO[C@H]2OCC[C@H]21)S(=O)(=O)c1cccc(CO)c1` [Compound 38] as the compound, how does the KI-wt/KI-mut (HIV-1 protease G48V/V82A) read?
**A.** >6.8

**Q.** What about the pKi (HIV-1 protease G48V/V82A) of the same compound?
**A.** 10.47

**Q.** And the Fitness (HIV-1 protease G48V/V82A)?
**A.** >1.8

**Q.** What about the pKi [1] of the same compound?
**A.** < 11.30

**Q.** What about the KI-wt/KI-mut (HIV-1 protease V82F/I84V [2]) of the same compound?
**A.** >13

**Q.** What about the Fitness (HIV-1 protease V82F/I84V [2]) of the same compound?
**A.** >2.1

**Q.** And the pKi (HIV-1 protease V82F/I84V [3])?
**A.** 10.18

**Q.** And the pIC50 (HIV-1LAI [4])?
**A.** 7.55

**Q.** And the pIC50 (HIV-1LAI [5])?
**A.** 8.10

**Q.** And the pIC50 (HIV-1BAL)?
**A.** 8.03

Source: patent publication US9889115B2, “Fitness assay and associated methods” (priority 1998, dated 2018)
